From patent US20220073532A1, “INHIBITORS OF CGAS ACTIVITY AS THERAPEUTIC AGENTS” (BELLBROOK LABS, LLC, priority 2019, published 2022)
pIC50: −log10 of the molar value. Like-named read-outs stand apart in the source and are kept apart here.

Target: cGAS (Homo sapiens, UniProt Q8N884)
Assay: cGAS enzymatic assay (FP/TR-FRET detection of cGAMP)
Assay type: biochemical
Parameters: The cGAS assay was used to screen 100,000 compounds with full-length human cGAS; 6xHis; made in house
Conditions: cGAS (30 nM)
Method: Some exemplary compounds of the disclosure were tested for inhibition of cGAS (30 nM). The results are provided in Table 1 where “A” indicates an IC50 of less than 100 nM, “B” indicates an IC50 of greater than 100 nM and less than 500 nM, “C” indicates an IC50 of greater than 500 nM and less than 1 μM, “D” indicates an IC50 of greater than 1 μM and less than 10 μM, and “E” indicates an IC50 of greater than 10 μM.
A homogenous cGAS enzymatic assay was developed with fluorescence polarization (FP) and time-resolved Forster resonance energy transfer (TR-FRET) readouts (FIG. 2A-2D). The cGAS assay was used to screen 100,000 compounds with full-length human cGAS (FIG. 2E), resulting in the identification of the novel chemotype of the disclosure, two of which are further developed in a structure-driven hit-to-lead study (Table 3, below). The assay performance was robust, as indicated by respective Z and Z′ values of 0.59 and 0.63 in the screen; compounds with polarization values greater than three SDs from the mean were considered hits; a scatterplot from 10 plates (3,200 compounds) is shown in FIG. 2D.
Biochemical and biophysical analysis: Potency and MOA studies, including Mn^2+ sensitivity, are performed using the cGAS enzymatic assay. Dose response experiments are used to determine IC50 values under basal conditions (5 mM MgCl2, 100 μM ATP/GTP), and with the addition of physiological levels of Mn (0.2 mM) using human and mouse cGAS. Ligand optimization is driven by potency with the human enzyme; potency with mouse cGAS informs selection of an appropriate disease model for efficacy studies. Competition with ATP and GTP is assessed by comparing basal IC50 values to those in the presence of saturating ATP or GTP, and subsequently confirmed by measuring velocity vs. substrate at varying ATP or GTP levels. Inhibitor residence times (1/koff) are used as a key parameter for prioritizing compounds and driving SAR, because a longer residence time often results from an allosteric mechanism, and can also correlate with improved cellular activity. The cGAS enzymatic assay is used with the jump dilution method to measure residence times (inhibitor dissociation rates), as described for kinases using the very similar ADP assay. Biophysical methods, including SPR and TSA, are used as orthologous methods for residence time measurements and kd estimates.

[1] = with Mn^2+, read-out: Inhibition cGAS + Mn^2+

Chain of cGAS (Q8N884 whole entry): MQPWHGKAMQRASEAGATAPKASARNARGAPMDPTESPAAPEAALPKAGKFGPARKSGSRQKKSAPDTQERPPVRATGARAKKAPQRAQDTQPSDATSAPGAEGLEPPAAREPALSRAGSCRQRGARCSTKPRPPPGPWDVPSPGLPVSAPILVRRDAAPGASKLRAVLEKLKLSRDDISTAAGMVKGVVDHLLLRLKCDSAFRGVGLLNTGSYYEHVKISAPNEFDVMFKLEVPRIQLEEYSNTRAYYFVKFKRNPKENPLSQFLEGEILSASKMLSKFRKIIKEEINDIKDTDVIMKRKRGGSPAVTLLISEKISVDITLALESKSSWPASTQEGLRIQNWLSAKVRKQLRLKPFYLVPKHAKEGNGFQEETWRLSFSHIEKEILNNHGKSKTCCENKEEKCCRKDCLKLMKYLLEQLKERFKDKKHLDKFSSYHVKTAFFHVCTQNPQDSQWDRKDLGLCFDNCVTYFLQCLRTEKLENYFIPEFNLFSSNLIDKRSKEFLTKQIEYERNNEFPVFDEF

SMILES | pIC50 (read-out: Inhibition cGAS) | Inhibition cGAS | pIC50 [1]
Cc1nc(N2C[C@@H](NC(=O)Cc3ccc(N)nc3)C[C@H]2C(=O)O)c2oc3ccccc3c2n1 [Compound 33, (2S,4S)-4-(2-(6-aminopyridin-3-yl)acetamido)-1-(2-methylbenzofuro[3,2-d]pyrimidin-4-yl)pyrrolidine-2-carboxylic acid] | 6.30 to 7.00 |  | 
Cc1nc(N2C[C@@H](NC(=O)Cc3cccnc3)C[C@H]2C(=O)O)c2oc3ccccc3c2n1 [Compound 34, (2S,4S)-1-(2-methylbenzofuro[3,2-d]pyrimidin-4-yl)-4-(2-(pyridin-3-yl)acetamido)pyrrolidine-2-carboxylic acid] | 6.00 to 6.30 |  | 
CNC(=O)C[C@H]1C[C@@H](C(=O)O)N(c2nc(C)nc3c2oc2ccccc23)C1 [Compound 35, (2S,4R)-4-(2-(methylamino)-2-oxoethyl)-1-(2-methylbenzofuro[3,2-d]pyrimidin-4-yl)pyrrolidine-2-carboxylic acid] | 6.00 to 6.30 |  | 
Cc1nc(N2C[C@@H](NC(=O)Cc3ncc[nH]3)C[C@H]2C(=O)O)c2oc3ccccc3c2n1 [Compound 36, (2S,4S)-4-(2-(1H-imidazol-2-yl)acetamido)-1-(2-methylbenzofuro[3,2-d]pyrimidin-4-yl)pyrrolidine-2-carboxylic acid] | 6.00 to 6.30 |  | 
Cc1nc(N2C[C@@H](NC3CCCNC3)C[C@H]2C(=O)O)c2oc3ccccc3c2n1 (stereo partly drawn) [Compound 37, (2S,4S)-1-(2-methylbenzofuro[3,2-d]pyrimidin-4-yl)-4-(piperidin-3-ylamino)pyrrolidine-2-carboxylic acid] | 6.00 to 6.30 |  | 
Cc1nc(N2C[C@@H](Nc3cccnc3)C[C@H]2C(=O)O)c2oc3ccccc3c2n1 [Compound 39, (2S,4S)-1-(2-methylbenzofuro[3,2-d]pyrimidin-4-yl)-4-(pyridin-3-ylamino)pyrrolidine-2-carboxylic acid] |  | B, D | 
Cc1nc(N2C[C@@H](NC(=O)Cc3c[nH]cn3)C[C@H]2C(=O)O)c2oc3ccccc3c2n1 [Compound 40, (2S,4S)-4-(2-(1H-imidazol-4-yl)acetamido)-1-(2-methylbenzofuro[3,2-d]pyrimidin-4-yl)pyrrolidine-2-carboxylic acid] | 6.00 to 6.30 |  | 
Cc1nc(N2C[C@@H](Nc3n[nH]cc3-c3ccccc3)C[C@H]2C(=O)O)c2oc3ccccc3c2n1 [Compound 41] | 6.00 to 6.30 |  | 
Cc1cncc(CC(=O)N[C@H]2C[C@@H](C(=O)O)N(c3nc(C)nc4c3oc3ccccc34)C2)c1 [Compound 42, (2S,4S)-1-(2-methylbenzofuro[3,2-d]pyrimidin-4-yl)-4-(2-(5-methylpyridin-3-yl)acetamido)pyrrolidine-2-carboxylic acid] | 6.00 to 6.30 |  | 
Cc1nc(N2C[C@@H](NC(N)=O)C[C@H]2C(=O)O)c2oc3ccccc3c2n1 [Compound 43, (2S,4S)-1-(2-methylbenzofuro[3,2-d]pyrimidin-4-yl)-4-ureidopyrrolidine-2-carboxylic acid] | 5.00 to 6.00 |  | 
Cc1nc(N2C[C@@H](NC(=O)[C@H]3CN3)C[C@H]2C(=O)O)c2oc3ccccc3c2n1 [Compound 44, (2S,4S)-4-((R)-aziridine-2-carboxamido)-1-(2-methylbenzofuro[3,2-d]pyrimidin-4-yl)pyrrolidine-2-carboxylic acid] | 5.00 to 6.00 |  | 
Cc1nc(N2C[C@@H](CC(N)=O)C[C@H]2C(=O)O)c2oc3ccccc3c2n1 [Compound 45, (2S,4R)-4-(2-amino-2-oxoethyl)-1-(2-methylbenzofuro[3,2-d]pyrimidin-4-yl)pyrrolidine-2-carboxylic acid] | 6.00 to 6.30 |  | 
Cc1nc(N2C[C@@H](CC(=O)Nc3ccccn3)C[C@H]2C(=O)O)c2oc3ccccc3c2n1 [Compound 46, (2S,4R)-1-(2-methylbenzofuro[3,2-d]pyrimidin-4-yl)-4-(2-oxo-2-(pyridin-2-ylamino)ethyl)pyrrolidine-2-carboxylic acid] | 5.00 to 6.00 |  | 
Cc1nc(N2C[C@@H](NC(=O)c3ncc[nH]3)C[C@H]2C(=O)O)c2oc3ccccc3c2n1 [Compound 47, (2S,4S)-4-(1H-imidazole-2-carboxamido)-1-(2-methylbenzofuro[3,2-d]pyrimidin-4-yl)pyrrolidine-2-carboxylic acid] | 5.00 to 6.00 |  | 
Cc1nc(N2C[C@@H](NC(=O)Cc3cccnc3N)C[C@H]2C(=O)O)c2oc3ccccc3c2n1 [Compound 49, (2S,4S)-4-(2-(2-aminopyridin-3-yl)acetamido)-1-(2-methylbenzofuro[3,2-d]pyrimidin-4-yl)pyrrolidine-2-carboxylic acid] | 6.00 to 6.30 |  | 
Cc1nc(N2C[C@@H](NC(=O)Cc3ccnc(C(N)=O)c3)C[C@H]2C(=O)O)c2oc3ccccc3c2n1 [Compound 50, (2S,4S)-4-(2-(2-carbamoylpyridin-4-yl)acetamido)-1-(2-methylbenzofuro[3,2-d]pyrimidin-4-yl)pyrrolidine-2-carboxylic acid] | 6.00 to 6.30 |  | 
Cc1nc(N2C[C@@H](CC(=O)NC3CCCC3)C[C@H]2C(=O)O)c2oc3ccccc3c2n1 [Compound 51, (2S,4R)-4-(2-(cyclopentylamino)-2-oxoethyl)-1-(2-methylbenzofuro[3,2-d]pyrimidin-4-yl)pyrrolidine-2-carboxylic acid] | 6.30 to 7.00 |  | 5.00 to 6.00
Cc1nc(N2C[C@@H](CC(=O)Nc3ccccc3)C[C@H]2C(=O)O)c2oc3ccccc3c2n1 [Compound 52, (2S,4R)-1-(2-methylbenzofuro[3,2-d]pyrimidin-4-yl)-4-(2-oxo-2-(phenylamino)ethyl)pyrrolidine-2-carboxylic acid] | 6.30 to 7.00 |  | 5.00 to 6.00
Cc1nc(N2[C@H](C(=O)O)C[C@@H]3C[C@@H]32)c2oc3ccccc3c2n1 [Compound 54, (1S,3S,5S)-2-(2-methylbenzofuro[3,2-d]pyrimidin-4-yl)-2-azabicyclo[3.1.0]hexane-3-carboxylic acid] | 5.00 to 6.00 |  | 5.00 to 6.00
Cc1nc(N2C[C@@H](Nc3n[nH]c4ccccc34)C[C@H]2C(=O)O)c2oc3ccccc3c2n1 [Compound 55, (2S,4S)-4-((1H-indazol-3-yl)amino)-1-(2-methylbenzofuro[3,2-d]pyrimidin-4-yl)pyrrolidine-2-carboxylic acid] | 6.00 to 6.30 |  | 5.00 to 6.00
Cc1nc(N2C[C@@H](NC(=O)C(C)(C)c3cn[nH]c3)C[C@H]2C(=O)O)c2oc3cc(F)ccc3c2n1 [Compound 57, (2S,4S)-1-(7-fluoro-2-methylbenzofuro[3,2-d]pyrimidin-4-yl)-4-(2-methyl-2-(1H-pyrazol-4-yl)propanamido)pyrrolidine-2-carboxylic acid] | 6.30 to 7.00 |  | 5.00 to 6.00
CC(C)(C(=O)N[C@H]1C[C@@H](C(=O)O)N(c2nc(C(F)(F)F)nc3c2oc2ccccc23)C1)c1cn[nH]c1 [Compound 58, (2S,4S)-4-(2-methyl-2-(1H-pyrazol-4-yl)propanamido)-1-(2-(trifluoromethyl)benzofuro[3,2-d]pyrimidin-4-yl)pyrrolidine-2-carboxylic acid] | 6.00 to 6.30 |  | 5.00 to 6.00
Cc1nc(N2C[C@@H](Nc3n[nH]cc3C(C)C)C[C@H]2C(=O)O)c2oc3ccccc3c2n1 [Compound 59, (2S,4S)-4-((4-isopropyl-1H-pyrazol-3-yl)amino)-1-(2-methylbenzofuro[3,2-d]pyrimidin-4-yl)pyrrolidine-2-carboxylic acid] | 6.30 to 7.00 |  | 5.00 to 6.00
Cc1nc(N2C[C@@H](N(C)C(=O)Cc3ccncc3)C[C@H]2C(=O)O)c2oc3ccccc3c2n1 [Compound 60, (2S,4S)-4-(N-methyl-2-(pyridin-4-yl)acetamido)-1-(2-methylbenzofuro[3,2-d]pyrimidin-4-yl)pyrrolidine-2-carboxylic acid] | 6.00 to 6.30 |  | 
Cc1nc(N2C[C@@H](NC(=O)C(C)(C)c3ccnc(C(F)(F)F)c3)C[C@H]2C(=O)O)c2oc3ccccc3c2n1 [Compound 61, (2S,4S)-4-(2-methyl-2-(2-(trifluoromethyl)pyridin-4-yl)propanamido)-1-(2-methylbenzofuro[3,2-d]pyrimidin-4-yl)pyrrolidine-2-carboxylic acid] | 6.00 to 6.30 |  | 5.00 to 6.00
Cc1nc(N2C[C@@H](NC(=O)C3(c4ccncc4)CC3)C[C@H]2C(=O)O)c2oc3ccccc3c2n1 [Compound 62, (2S,4S)-1-(2-methylbenzofuro[3,2-d]pyrimidin-4-yl)-4-(1-(pyridin-4-yl)cyclopropane-1-carboxamido)pyrrolidine-2-carboxylic acid] | 6.00 to 6.30 |  | 5.00 to 6.00
